Test results reported in the METLIN SMRT retention time set (Domingo-Almenara et al. 2019).

Experiment: gradient 5% acetonitrile 3 min, to 50% in 2 min, to 85% in 15 min, held 3 min, 100 µL/min
Conditions: column: Zorbax Extend-C18 2.1 x 50 mm; eluents: water / acetonitrile, 0.1% formic acid
How it was run: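 Standards, all pure, were combined into mixtures of ~100 molecules and run at 100 μL/min on a Zorbax Extend-C18 column (2.1 × 50 mm, 1.8 μm) with water and acetonitrile, each containing 0.1% formic acid. A coupled quadrupole time-of-flight mass spectrometer operated in positive and negative ionization mode. Retention time values come from computationally picked adduct peaks, each inspected manually.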

| Compound | RP-LC retention time [s] |
| --- | --- |
| COc1cccc(-c2noc(Cn3ccn(-c4ccccc4)c(=O)c3=O)n2)c1 | 812 |
| O=C(Nc1ccc(F)c(Cl)c1)C1CCN(C(=O)c2ncn3c2COC(c2ccccc2)C3)CC1 (configuration not stated) | 864 |
| O=C(NC1CCCCCC1)c1cn(-c2ccc(-c3nc(C4CC4)no3)cn2)cn1 | 1010 |
| Cc1cc(C)n(-c2cc(NCCNC(=O)c3c[nH]c4ccccc34)nc(C)n2)n1 | 630 |
| OCC(O)C1OCOC(C(O)CO)C1O (configuration not stated) | 719 |
| COc1ccc(NC(=O)c2nnc(CSCC(=O)NCCc3c[nH]c4ccc(C)cc34)s2)cc1 | 910 |
| O=C(Cc1ccc(Cl)cc1)N1CCc2nc(-c3ccc(Cl)cc3)ncc2C1 | 1130 |
| CC1CN(S(=O)(=O)c2cccc(-c3cn4ccccc4n3)c2)CC(C)O1 (configuration not stated) | 640 |
| CNC(=O)c1cc(N2CCCC2)nc2c(C)cccc12 | 567 |
| CCc1noc(NC(C)=O)c1-c1ccc(OC)c(S(=O)(=O)Nc2ccc(C(C)C)cc2)c1 | 891 |
| CC(Cc1ccco1)NC(=O)c1ccc2nc(Cc3ccccc3)oc2c1 (configuration not stated) | 947 |
| Clc1ccc(-c2nc(-c3ccc4nncn4c3)no2)cc1 | 896 |
| O=C(NCc1nnnn1C1CCCCC1)C1CC1 | 647 |
| Cc1cc(C)c(S(=O)(=O)Nc2ccc(-c3cn4ccccc4n3)cc2)cc1C | 719 |
| O=C(CN1C(=O)CC(c2ccccc2)S(=O)(=O)c2ccccc21)Nc1cccc(F)c1 (configuration not stated) | 863 |
| Cc1ccc2c(Nc3ccc(Br)cc3)c(C(=O)N3CCOCC3)cnc2n1 | 608 |
| COc1cc(Cl)ccc1C(=O)N1C[C@@H]2C[C@H]1C[C@@H]2NC(=O)c1ccccc1 | 939 |
| Cc1cc(S(=O)(=O)NCC2(C)CCOCC2)ccc1F | 840 |
| Cc1ccc(C)c(NC(=O)Cn2c(C)nc3c(sc4nc(-c5ccccc5)ccc43)c2=O)c1 | 1090 |
| COCc1cc(=O)n(CC(=O)Nc2cc(Cl)ccc2C)c(N2CCOCC2)n1 | 895 |
| CSc1ccc(CCNC(=O)c2nc(N3CCOCC3)c3ccccc3n2)cc1 | 721 |

| Compound | RP-LC retention time [s] |
| --- | --- |
| COCCN1C(=O)CCc2c(C)nc(-c3cccnc3)nc21 | 614 |
| Cc1noc(C)c1S(=O)(=O)N1CCc2c(c(-c3nnc(-c4ccc(F)cc4)o3)nn2C)C1 | 910 |
| O=C(c1ccc(-n2cccn2)nc1)N1CCCCC1 | 732 |
| Cc1cc(-c2nnc(C3CCC3)o2)c(C)n1CC(=O)Nc1cccc(Cl)c1 | 960 |
| CC1=CC(=O)C2=C(C)C[C@H](O)[C@H]3[C@H](C)C(=O)O[C@@H]3C12 (some centres not stated) | 725 |
| CC(C)(C)CC(=O)Nc1cnc(-c2ccc(Cl)cc2)nc1 | 1130 |
| Cc1ccc(CNC(=O)c2cc(NC(=O)C(C)C)cc3nc(C)ccc23)cc1 | 680 |
| CCOC(=O)c1ccccc1NC(=O)N(CC)Cc1cc(=O)[nH]c2ccccc12 | 907 |
| Cc1ccc(NC(=O)N2CCc3[nH]cnc3C2c2ccncc2)cc1Cl (configuration not stated) | 585 |
| Cc1cc2c(=O)n(CC(=O)Nc3ccc(Cl)cc3)c3cccnc3n2n1 | 745 |
| COc1ccc(C(=O)Nc2nccnc2C(=O)NCc2ccc(Br)cc2)cc1 | 1010 |
| O=C(Cn1cccc(-c2nc(-c3ccccc3)no2)c1=O)Nc1ccc(F)cc1F | 864 |
| CCc1noc(NC(C)=O)c1-c1ccc(C)c(S(=O)(=O)NCc2ccco2)c1 | 766 |
| Cn1nnc2ccc(-c3noc(Cc4cccc(F)c4)n3)cc21 | 921 |
| NS(=O)(=O)c1nn2cc(-c3ccccc3)nc2s1 | 813 |
| COCCNC(=O)CSc1nccnc1Oc1ccc(C)cc1 | 798 |
| CCOC(=O)c1cnc2c(-c3cccc(Cl)c3)c(C)nn2c1N | 1180 |
| CCc1nc(C)c(C)c2nn(Cc3cccc(C#N)c3)c(=O)n12 | 919 |
| O=C(Nc1ccc(F)cc1F)Nc1c(-c2ccccc2)nc2ccccn12 | 660 |
| Cc1nn(Cc2nc(-c3ccc(NC(=O)c4ccsc4)cc3)oc2C)c(C)c1C | 955 |
| Fc1cccc(-c2nnc(-c3ccccc3Cl)o2)c1 | 1060 |

Second part, the compound after the results:

| RP-LC retention time [s] | Compound |
| --- | --- |
| 586 | CC1CCCN(C(=O)C2CCN(CCc3c[nH]c4ncccc34)CC2)C1 (configuration not stated) |
| 621 | Cc1noc(C2(NC(=O)c3ccc[nH]c3=O)CCCCC2)n1 |
| 808 | O=C1NCCCCCCN(C(=O)Nc2ccc3c(c2)OCCO3)[C@H]2CCCC[C@@H]12 |
| 602 | O=C(NCCCN1CCCC1=O)c1c(OCC2CC2)cc(=O)n2c1CCCCC2 |
| 1070 | COc1ccc(OC)c(NC(=O)N2CCN(c3nc4ccccc4nc3C(F)(F)F)CC2)c1 |
| 1090 | CC(C)c1cc(C(=O)Nc2ccc(F)cc2)nc2ccnn12 |
| 761 | O=C(O)c1cccc2c1CCN2C(=O)c1ccc(F)cc1 |
| 860 | O=C(C1CCCN(c2ncnc3c2nc2n3CCCCC2)C1)N1CCc2ccccc21 (configuration not stated) |
| 1020 | Cn1ncc2c(N3CCCCC3)nc(C(=O)N3CCN(c4ccc(Cl)cc4)CC3)nc21 |
| 656 | Cc1cc(C(F)(F)F)nn1CC(=O)N1CCC(n2c(C)cnc2C2CCC2)C1 (configuration not stated) |
| 589 | CC(C)CN(CCCNC(=O)C1CCN(c2cnn(C)c(=O)c2)C1)CC(C)C (configuration not stated) |
| 790 | CC1CS(=O)(=O)N(c2cccc(C(=O)N3CCN(c4ccccc4F)CC3)c2)C1=O (configuration not stated) |
| 956 | Cc1ccc(CNC(=O)C2(C)CCN(C(=O)Nc3ccc(C)cc3Cl)CC2)cc1 |
| 631 | CCc1ccc(CN2C[C@@H]3C(=O)N(CCOC)C(=O)[C@@H]3C2)cc1 |
| 576 | Cc1cc2n(n1)CCC(=O)N2CCCC(=O)NCCN(C)C1CCCCC1 |
| 822 | Cc1ccc(Cn2nnc3cc(C(=O)N4CCN(c5ncccn5)CC4)ccc32)cc1 |
| 700 | CCn1c(C(=O)NCCCN2CCCC2=O)c(N2CCCC2=O)c2cc(F)ccc21 |
| 640 | CC(C)n1c(CN2CCOCC2)nc2cc(NC(=O)c3cccs3)ccc21 |
| 679 | CC(C)NC(=O)C1CCN(C(=O)c2ncn3c2COC(c2ccc(F)cc2)C3)CC1 (configuration not stated) |
| 832 | O=C(Cn1nc2c3sc(N4CCCCC4)nc3ncn2c1=O)Nc1ccc(Cl)cc1 |
| 581 | COc1ccc(CN2CCC3(CC2)CC(O)CCO3)c(OC)c1 (configuration not stated) |
| 1040 | COc1ccc(C2(C(=O)N3CCC(c4noc(-c5cccc(OC)c5)n4)CC3)CC2)cc1 |
| 571 | COC(=O)c1ccc(CN2CCN(c3cnn4c(C5CC5)nnc4c3)CC2)cc1 |
| 1010 | CC(C)CCN1C(=O)CC[C@]2(C(=O)N3CCN(c4ccc(F)cc4)CC3)CCCC[C@@H]12 |
| 696 | CCOc1ccccc1NC(=O)Cn1cnc2nc(N3CCC(C(=O)NC4CC4)CC3)sc2c1=O |
